Target: T1, CYP1B1 (Mus musculus, UniProt Q64429)
T1 sequence (Q64429 1-543): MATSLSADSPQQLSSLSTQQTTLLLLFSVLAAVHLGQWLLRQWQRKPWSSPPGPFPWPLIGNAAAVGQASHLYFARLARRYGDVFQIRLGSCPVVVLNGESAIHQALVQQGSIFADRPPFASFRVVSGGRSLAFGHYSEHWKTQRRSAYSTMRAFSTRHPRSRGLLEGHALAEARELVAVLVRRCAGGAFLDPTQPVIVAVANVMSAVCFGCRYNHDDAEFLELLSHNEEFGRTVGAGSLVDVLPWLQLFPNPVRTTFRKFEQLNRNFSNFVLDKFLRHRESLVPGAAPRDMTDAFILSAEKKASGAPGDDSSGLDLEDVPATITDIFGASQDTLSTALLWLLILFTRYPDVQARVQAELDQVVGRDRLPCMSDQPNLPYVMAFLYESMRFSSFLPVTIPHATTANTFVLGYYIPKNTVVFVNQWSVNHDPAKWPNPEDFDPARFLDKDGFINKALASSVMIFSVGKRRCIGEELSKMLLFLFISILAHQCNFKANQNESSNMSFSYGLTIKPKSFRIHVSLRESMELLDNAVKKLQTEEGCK
Test: Impact of Cyp1b1 deletion on lung estrogen/EM levels (Cyp1b1-KO vs Cyp1b1-WT 129SvJ mice), LC-MS2
Protocol: Animals. […] Smoke exposures were performed on female C57/B6 mice (1.5-2 years old) carrying a human APOE*4 transgene that were part of an atherosclerosis study at Duke University and fed a high-fat diet TD.88051. Animals had free access to food and water. All animal experimentation was approved by the Institutional Animal Care and Use Committees at Fox Chase Cancer Center and Duke University.
Genotyping. PCR-based genotyping of Cyp1b1 wild-type (Cyp1b1-WT) and knockout (Cyp1b1-K0) mice was performed using Choice Taq Blue DNA Polymerase Master mix (Denville Scientific, South Plainfield, N.J.) according to the following protocol: Wild-type primers—[…]
Lung tissue collection. Following euthanasia, the lungs were perfused by intracardiac injection with 30 ml phosphate buffered saline to flush out the blood. Perfused tissues were snap-frozen in liquid nitrogen and stored at −80° C. The accessory lobe of the lung was reserved for RNA extraction, whereas the remaining lobes were processed for estrogen metabolite analyses.
Sample preparation. Lung tissue samples (0.1-0.2 g per sample) from Cyp1b1-WT or Cyp1b1-KO mice (female and male, 12-14 weeks of age, n=4-5 per group) were thawed at room temperature, minced with scissors and transferred into 1.5 ml Eppendorf tubes. […] The tissue was homogenized on ice using a Tissue Tearor™ (Cole-Parmer, Vernon Hills, Ill.) at low and high speeds in two consecutive 15 s increments for a total of 30 s, and further sonicated on ice (five cycles of 10 s pulses with 10 s breaks between pulses). Eight milliliters of ethanol:acetone and […] each of stable isotope-labeled estrogen internal standards (0.32 ng/ml working standard solutions) were added to each tissue homogenate. The mixture was incubated on a rotator at room temperature for 1 h and centrifuged at 3000 ×g for 30 min. The ethanol:acetone tissue extract was transferred to a clean glass tube and dried under nitrogen gas at 60° C. for 60 min (Reacti-Vap III™, Pierce, Rockford, Ill.). The residue was redissolved in 4 ml of methanol, vortexed for 1 min, chilled at -80° C. for 1 h, returned to room temperature and centrifuged at 3000 × g for 20 min. The methanolic phase was transferred to a clean glass tube and dried under nitrogen gas. The residue was redissolved in 100 μl of ethanol and vortexed briefly. This step was followed by the addition of 1.5 ml of 100 mM sodium acetate buffer, pH 4.6, and 5 ml of dichloromethane to the residue and incubation at room temperature on a rotator for 30 min.
The extract was chilled at −80° C. for 10 min, returned to room temperature and centrifuged at 3000 × g for 20 min. The dichloromethane phase was transferred to a clean tube and dried. To each dried sample, 40 μl of 0.1 M sodium bicarbonate buffer, pH 9.0, and 40 μl of dansyl chloride solution (1 mg/ml in acetone) were added. After vortexing for 10 s, samples were heated at 70° C. (Reacti-Therm III™ Heating Module, Pierce, Rockford, Ill.) for 10 min to form the EM and SI-EM dansyl derivatives. All samples were centrifuged at 3000 ×g for 20 min and analyzed using LC-M5^2. The efficiency of extracting estrogen and its metabolites from the tissue cannot be measured accurately because a known amount of each metabolite cannot be placed in the tissue prior to extraction. Furthermore, the amount of estrogens/EM present at baseline is unknown.
LC-MS^2 analysis was performed using a Shimadzu Prominence UFLC system (Shimadzu Scientific Instruments, Columbia, Md.) coupled with a TSQ™ Quantum Ultra triple quadrupole mass spectrometer (Thermo Electron, San Jose, Calif.). The LC separation was carried out on a 50 mm long×2 mm […] column packed with 2.5 μm Synergi Hydro-RP particles (Phenomenex, Torrance, Calif.) maintained at 40° C. A 20 μl aliquot of each sample was injected onto the column.

C[C@]12CC[C@@H]3c4ccc(O)c(O)c4CC[C@H]3[C@@H]1CCC2=O [4-OHE1, 4-hydroxyestrone]
decrease in lung level by deletion of Cyp1b1 (female Cyp1b1-KO vs WT): 21 fold
lung level in Cyp1b1-KO as % of WT controls (females): 4.7%
decrease in lung level by deletion of Cyp1b1 (male Cyp1b1-KO vs WT): 14 fold
lung level in Cyp1b1-KO as % of WT controls (males): 7.4%

C[C@]12CC[C@@H]3c4cc(O)c(O)cc4CC[C@H]3[C@@H]1CCC2=O [2-OHE1, 2-hydroxyestrone]
percentage of total estrogen, male versus female (in words) (Cyp1b1-KO mice): no significant difference
increase in lung level in Cyp1b1-KO compared with WT controls (females): 3 fold
increase in lung level in Cyp1b1-KO compared with WT controls (males): 1.7 fold

C[C@]12CC[C@@H]3c4ccc(O)c(O)c4CC[C@H]3[C@@H]1CC[C@@H]2O [4-OHE2, 4-hydroxyestradiol]
lung level reduced in Cyp1b1-KO compared with Cyp1b1-WT controls (both sexes): ~50%
lung level reduced in Cyp1b1-KO compared with Cyp1b1-WT controls (females): 60%
lung level reduced in Cyp1b1-KO compared with Cyp1b1-WT controls (males): 56%

From US20140363406A1, “ESTROGEN METABOLITE LEVELS AND CYP1B1 POLYMORPHISMS IN LUNG CANCER DIAGNOSIS, PROGNOSIS, AND RISK ASSESSMENT” (Institute for Cancer Research d/b/a The Research Institute …, priority 2012, published 2014)
